According to publication PMC9497675, “Explore the Interaction between Ellagic Acid and Zein Using Multi-Spectroscopy Analysis and Molecular Docking” (Foods, 2022):

Target: T1, zein
T1 construct: gene alpha-zein
Assay: intrinsic fluorescence quenching (ex […] nm), modified Stern-Volmer double-log plot
Format: binding, Zea mays
Settings: 298 K; 0.05 mg/mL zein in 70% aqueous ethanol; EA stock in 50% methanol; n = 1.2786; apparent constant

In the case of `O=c1oc2c(O)c(O)cc3c(=O)oc4c(O)c(O)cc1c4c23` [EA, ellagic acid], the “KA (L/mol)” value is reported as 9.47 × 10^2.
